Measurements from patent US20240116985A1, “STAPLED PEPTIDES AND METHODS THEREOF” (priority 2020, published 2024).
≈ marks a conversion by molar mass, not a printed value. Like-named read-outs stand apart in the source and are kept apart here.

What was measured:
CHI Log D procedure = format: physicochemical; conditions: for chromatographic logD: pH 7.4, CHI Log D; for CHI Log D: pH 7.4
Solubility in PBS = format: physicochemical
In short: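 PBS sample ultracentrifuged; supernatant run on HPLC vs. 50 μM peptide in DMSO standard. Solubility = (PBS peak area / DMSO peak area) × 50 uM.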

[1] = biological target: T1, full-length beta-Catenin (Uniprot ID P35222) (Homo sapiens, UniProt P35222); test: Fluorescence polarization IC50 (beta-catenin / 5FAM-TCF4 10-53 competition); format: binding
T1 construct: 10 nM full-length beta-Catenin (Uniprot ID P35222)
T1 sequence (P35222 1-781): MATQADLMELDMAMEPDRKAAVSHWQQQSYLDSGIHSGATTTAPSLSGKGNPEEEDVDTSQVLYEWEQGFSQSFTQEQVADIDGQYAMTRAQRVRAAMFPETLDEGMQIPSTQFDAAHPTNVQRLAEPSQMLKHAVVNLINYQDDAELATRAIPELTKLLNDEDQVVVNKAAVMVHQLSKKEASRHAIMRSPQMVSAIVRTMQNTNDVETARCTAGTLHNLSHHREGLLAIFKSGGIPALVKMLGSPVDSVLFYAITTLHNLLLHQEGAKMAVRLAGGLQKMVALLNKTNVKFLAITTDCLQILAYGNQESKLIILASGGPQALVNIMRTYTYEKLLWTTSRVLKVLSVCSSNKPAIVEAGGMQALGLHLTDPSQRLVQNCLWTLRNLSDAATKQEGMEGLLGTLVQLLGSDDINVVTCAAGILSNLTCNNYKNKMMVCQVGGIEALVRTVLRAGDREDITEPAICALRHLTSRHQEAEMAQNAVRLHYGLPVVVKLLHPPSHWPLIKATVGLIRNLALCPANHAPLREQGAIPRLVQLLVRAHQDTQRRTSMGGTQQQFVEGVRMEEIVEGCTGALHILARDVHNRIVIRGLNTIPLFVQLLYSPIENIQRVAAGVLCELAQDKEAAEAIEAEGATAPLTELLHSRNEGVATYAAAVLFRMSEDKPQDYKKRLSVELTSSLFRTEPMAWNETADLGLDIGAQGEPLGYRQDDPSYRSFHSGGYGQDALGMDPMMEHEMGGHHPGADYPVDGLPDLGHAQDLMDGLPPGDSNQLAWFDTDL

[2] = fluorescence polarization, beta-catenin, read-out: FP EC50
[3] = fluorescence polarization, read-out: beta-Catenin FP IC50

chromatographic logD (CHI Log D procedure) | Solubility (Solubility in PBS) [µM] | IC50 [1, 2] [nM] | CHI Log D (CHI Log D procedure) | IC50 [1, 3] [nM] | IC50 ([1]; read-out: FP EC50) [nM] | IC50 ([1]; read-out: beta-Catenin FP IC50) [nM] | Solubility (Solubility in PBS; Solubility (uM)) [µM] | solubility at 15 min (Solubility in PBS; Solubility (uM)) [µM] | Compound
3.7 | 10 (≈ 22.2 µg/mL) | 390 | – | – | – | – | – | – | CC(=O)N1CCC[C@]12CC=CCCCC1(CCCC=CCCCOC(=O)N3CC[C@@](C(=O)N[C@@H](Cc4ccccc4Cl)C(=O)N[C@@H](Cc4csc5ccccc45)C(=O)N[C@@H](CCC(N)=O)C(=O)NCCCCCCN=[N+]=[N-])(C3)NC(=O)[C@H](Cc3ccccc3)NC(=O)[C@H](Cc3ccccc3)NC(=O)[C@H](C)NC(=O)[C@H](C)NC(=O)[C@H](CN(CC(=O)O)CC(F)(F)F)NC(=O)[C@H](CC(=O)O)NC1=O)NC(=O)[C@H](CC(C)(C)C)NC(=O)[C@H](CC(=O)O)NC2=O (stereo partly drawn) [I-1085, Ac-PL3-Asp-Npg-B5-Asp-TfeGA-Ala-Ala-Phe-Phe-PyrS2-2C1F-BztA-Gln-6AzHex]
– | 43 (≈ 74.9 µg/mL) | – | 2.698 | 131 | 131 | – | – | – | CC[C@H](C)[C@@H]1NC(=O)[C@H](CC(=O)O)NC(=O)[C@]2(CC=CCCCC3(CCCC=CCCCCCC[C@@](C)(C(=O)N[C@@H](Cc4ccccc4)C(=O)N[C@@H](Cc4csc5ccccc45)C(N)=O)NC(=O)[C@H](CC(N)=O)NC(=O)[C@H](Cc4ccccc4)NC(=O)[C@H](C)NC(=O)[C@H](C)NC(=O)[C@H](CCC(=O)O)NC(=O)[C@H](CC(=O)O)NC3=O)NC1=O)CCCN2C(C)=O (stereo partly drawn) [I-714, Ac-PL3-Asp-Ile-B5-Asp-Glu-Ala-Ala-Phe-Asn-S8-Phe-BztA-NH2]
– | 13 (≈ 25.8 µg/mL) | 336 | 2.06 | – | – | 336 | – | – | CC(=O)N1CCC[C@]12CC=CCCCC1(CCCC=CCCCOC(=O)N3CC[C@@](C(=O)N[C@@H](Cc4ccsc4)C(=O)N[C@@H](Cc4csc5ccccc45)C(=O)N[C@@H](CO)C(N)=O)(C3)NC(=O)[C@H](CC(C)C)NC(=O)[C@H](Cc3ccccc3)NC(=O)[C@H](C)NC(=O)[C@H](C)NC(=O)[C@H](CN(CC(=O)O)CC(F)(F)F)NC(=O)[C@H](CC(=O)O)NC1=O)NC(=O)[C@H](CC(C)(C)C)NC(=O)[C@H](CC(=O)O)NC2=O (stereo partly drawn) [I-960, Ac-PL3-Asp-Npg-B5-Asp-TfeGA-Ala-Ala-Phe-Leu-PyrS2-3Thi-BztA-Ser-NH2]
2.41 | 10 (≈ 19.5 µg/mL) | – | – | 53 | – | – | – | – | CC(=O)N1CCC[C@]12CC=CCCCC1(CCCC=CCCCCCC[C@@](C)(C(=O)N[C@@H](Cc3ccccc3)C(=O)N[C@@H](Cc3csc4ccccc34)C(=O)N[C@@H](Cc3c[nH]cn3)C(=O)N[C@H](C)C(N)=O)NC(=O)[C@H](CC(N)=O)NC(=O)[C@H](Cc3ccccc3)NC(=O)[C@H](C)NC(=O)[C@H](C)NC(=O)[C@H](CCC(=O)O)NC(=O)[C@H](CC(=O)O)NC1=O)NC(=O)[C@H](CC(C)C)NC(=O)[C@H](CC(=O)O)NC2=O (stereo partly drawn) [I-739, Ac-PL3-Asp-Leu-B5-Asp-Glu-Ala-Ala-Phe-Asn-S8-Phe-BztA-His-dAla-NH2]
1.71 | 50 (≈ 90.7 µg/mL) | – | – | 3150 | – | – | – | – | CC(=O)N1CCC[C@]12CC=CCCCC1(CCCC=CCCCCCC[C@@](C)(C(=O)N[C@@H](Cc3ccncc3)C(=O)N[C@@H](Cc3csc4ccccc34)C(=O)N[C@@H](CCC(N)=O)C(N)=O)NC(=O)[C@H](C(C)C)NC(=O)[C@H](Cc3ccccc3)NC(=O)[C@H](C)NC(=O)[C@H](C)NC(=O)[C@H](CCC(=O)O)NC(=O)[C@H](CC(=O)O)NC1=O)NC(=O)[C@H](C)NC(=O)[C@H](CC(=O)O)NC2=O (stereo partly drawn) [I-385, Ac-PL3-Asp-Ala-B5-Asp-Glu-Ala-Ala-Phe-Val-S8-4pyrA-BztA-Gln-NH2]
2.42 | – | – | – | 138 | – | – | 45 (≈ 87.6 µg/mL) | – | CC[C@H](C)[C@@H]1NC(=O)[C@H](CC(=O)O)NC(=O)[C@]2(CC=CCCCC3(CCCC=CCCCCCC[C@@](C)(C(=O)N[C@@H](Cc4ccccc4)C(=O)N[C@@H](Cc4csc5ccccc45)C(=O)N[C@@H](CCC(N)=O)C(N)=O)NC(=O)[C@H](CCC(N)=O)NC(=O)[C@H](Cc4ccccc4)NC(=O)[C@H](C)NC(=O)[C@H](C)NC(=O)[C@H](CCC(=O)O)NC(=O)[C@H](CC(=O)O)NC3=O)NC1=O)CCCN2C(=O)c1ccccn1 (stereo partly drawn) [I-599, Pic-PL3-Asp-Ile-B5-Asp-Glu-Ala-Ala-Phe-Gln-S8-Phe-BztA-Gln-NH2]
– | 45 (≈ 86.7 µg/mL) | 179 | 1.8 | – | – | 179 | – | – | CC(=O)N1CCC[C@]12CC=CCCCC1(CCCC=CCCCOC(=O)N3CC[C@@](C(=O)N[C@@H](Cc4ccsc4)C(=O)N[C@@H](Cc4csc5ccccc45)C(=O)N[C@@H](CO)C(N)=O)(C3)NC(=O)[C@H](CO)NC(=O)[C@H](Cc3ccccc3)NC(=O)[C@H](C)NC(=O)[C@H](C)NC(=O)[C@H](Cc3cccc(C(=O)O)c3)NC(=O)[C@H](CC(=O)O)NC1=O)NC(=O)[C@H](CC(C)(C)C)NC(=O)[C@H](CC(=O)O)NC2=O (stereo partly drawn) [I-984, Ac-PL3-Asp-Npg-B5-Asp-3COOHF-Ala-Ala-Phe-Ser-PyrS2-3Thi-BztA-Ser-NH2]
– | 47 (≈ 83.7 µg/mL) | – | 3.002 | 338 | 338 | – | – | – | CC(=O)N1CCC[C@]12CC=CCCCC1(CCCC=CCCCCCC[C@@](C)(C(=O)N[C@@H](Cc3ccccc3)C(=O)N[C@@H](Cc3csc4ccccc34)C(N)=O)NC(=O)[C@H](CC(N)=O)NC(=O)[C@H](Cc3ccccc3)NC(=O)[C@H](C)NC(=O)[C@H](C)NC(=O)[C@H](CCC(=O)O)NC(=O)[C@H](CC(=O)O)NC1=O)NC(=O)[C@H](CC1CCCCC1)NC(=O)[C@H](CC(=O)O)NC2=O (stereo partly drawn) [I-627, Ac-PL3-Asp-Cha-B5-Asp-Glu-Ala-Ala-Phe-Asn-S8-Phe-BztA-NH2]
– | 10 (≈ 18.7 µg/mL) | – | 2.617 | 135 | 135 | – | – | – | CC(=O)N1CCC[C@]12CC=CCCCC1(CCCC=CCCCCCC[C@@](C)(C(=O)N[C@@H](Cc3ccccc3)C(=O)N[C@@H](Cc3csc4ccccc34)C(=O)N[C@@H](Cc3c[nH]cn3)C(N)=O)NC(=O)[C@H]([C@@H](C)O)NC(=O)[C@H](Cc3ccccc3)NC(=O)[C@H](C)NC(=O)[C@H](C)NC(=O)[C@H](CCC(=O)O)NC(=O)[C@H](CC(=O)O)NC1=O)NC(=O)[C@H](CC(C)C)NC(=O)[C@H](CC(=O)O)NC2=O (stereo partly drawn) [I-618, Ac-PL3-Asp-Leu-B5-Asp-Glu-Ala-Ala-Phe-Thr-S8-Phe-BztA-His-NH2]
1.39 | – | – | – | 5000 | – | – | – | 46 (≈ 84.2 µg/mL) | CC(=O)N1CCC[C@]12CC=CCCCC1(CCCC=CCCCCCC[C@@](C)(C(=O)NC(Cc3cncn3C)C(=O)N[C@@H](Cc3csc4ccccc34)C(=O)N[C@@H](CCC(N)=O)C(N)=O)NC(=O)[C@H](CC(N)=O)NC(=O)[C@H](Cc3ccccc3)NC(=O)[C@H](C)NC(=O)[C@H](C)NC(=O)[C@H](CCC(=O)O)NC(=O)[C@H](CC(=O)O)NC1=O)NC(=O)[C@H](C)NC(=O)[C@H](CC(=O)O)NC2=O (stereo partly drawn) [I-438, Ac-PL3-Asp-Ala-B5-Asp-Glu-Ala-Ala-Phe-Asn-S8-3meH-BztA-Gln-NH2]
– | 47 (≈ 88.8 µg/mL) | – | 2.409 | 41 | 41 | – | – | – | CC(=O)N1CCC[C@]12CC=CCCCC1(CCCC=CCCCCCC[C@@](C)(C(=O)N[C@@H](Cc3ccsc3)C(=O)N[C@@H](Cc3csc4ccccc34)C(=O)N[C@@H](CCC(N)=O)C(N)=O)NC(=O)[C@H](CC(N)=O)NC(=O)[C@H](Cc3ccccc3)NC(=O)[C@H](C)NC(=O)[C@H](C)NC(=O)[C@H](CCC(=O)O)NC(=O)[C@H](CC(=O)O)NC1=O)NC(=O)[C@H](CC(C)(C)C)NC(=O)[C@H](CC(=O)O)NC2=O (stereo partly drawn) [I-682, Ac-PL3-Asp-Npg-B5-Asp-Glu-Ala-Ala-Phe-Asn-S8-3Thi-BztA-Gln-NH2]
3.42 | 10 (≈ 19.9 µg/mL) | – | – | – | – | 154 | – | – | CC(=O)N1CCC[C@]12CC=CCCCC1(CCCC=CCCCCCC[C@@](C)(C(=O)N[C@@H](Cc3ccccc3Cl)C(=O)N[C@@H](Cc3csc4ccccc34)C(=O)N[C@@H](CCO)C(N)=O)NC(=O)[C@H](CC(C)C)NC(=O)[C@H](Cc3ccccc3)NC(=O)[C@H](C)NC(=O)[C@H](C)NC(=O)[C@H](CN(CC(=O)O)CC(F)(F)F)NC(=O)[C@H](CC(=O)O)NC1=O)NC(=O)[C@H](CC(C)(C)C)NC(=O)[C@H](CC(=O)O)NC2=O (stereo partly drawn) [I-997, Ac-PL3-Asp-Npg-B5-Asp-TfeGA-Ala-Ala-Phe-Leu-S8-2C1F-BztA-Hse-NH2]
– | 10 (≈ 19.9 µg/mL) | 118 | 1.919 | – | – | 118 | – | – | CC(=O)N1CCC[C@]12CC=CCCCC1(CCCC=CCCCOC(=O)N3CC[C@@](C(=O)N[C@@H](Cc4ccsc4)C(=O)N[C@@H](Cc4csc5ccccc45)C(=O)N[C@@H](CO)C(N)=O)(C3)NC(=O)[C@H](Cc3ccccc3)NC(=O)[C@H](Cc3ccccc3)NC(=O)[C@H](C)NC(=O)[C@H](C)NC(=O)[C@H](Cc3cccc(C(=O)O)c3)NC(=O)[C@H](CC(=O)O)NC1=O)NC(=O)[C@H](CC(C)(C)C)NC(=O)[C@H](CC(=O)O)NC2=O (stereo partly drawn) [I-983, Ac-PL3-Asp-Npg-B5-Asp-3COOHF-Ala-Ala-Phe-Phe-PyrS2-3Thi-BztA-Ser-NH2]
